Laboratory results as given in patent US10912814B2, “Combination formulation of three antiviral compounds” (priority 2016, dated 2021).
Read-outs that look alike come from different tables or passages of the source.

How the values were obtained:
[1] = Velpatasvir single and multiple oral dose pharmacokinetics; format: in vivo, human; details: for concentration at 24 h: human, plasma, oral, 5 mg, mean
Protocol: Following single and multiple oral doses of velpatasvir, maximum plasma concentrations occurred between 1.50 and 3.25 hours (median tmax).

[2] = Storage stability: appearance, assay/label strength (LS), total impurities/degradation products; format: physicochemical; details: for physical and chemical stability: open container, 1 month at 40° C./75% RH
Protocol: In some embodiments, the film-coated tablets were packaged in 75 and 100 mL white HDPE bottles (Lots A and B, respectively, as described in Tables 11A, 11B) with 1 g silica gel desiccant canisters and a polyester fiber coil. The 75 and 100 mL HDPE bottles contained fourteen and twenty eight tablets, respectively. Each HDPE bottle was capped using a white, continuous thread, child-resistant polypropylene screw cap with an […], aluminum-faced line. The packaged tablets (14 and 28 counts) were evaluated for stability at 40° C./75% RH and 25° C./60% RH. Additionally, the 14-count bottles (without cap) were evaluated for stability under open conditions at 40° C./75% RH.
For each of the impact studies, the sofosbuvir/velpatasvir SSD/voxilaprevir SSD tablets were packaged in a designated commercial packaging configuration (28-count, 100 mL HPDE bottle, coil, 1 g desiccant), and stored for 12 weeks at 25° C./60% RH and 40° C./75% RH. Tablets were also packaged in open containers (28-count, 100 mL HPDE bottle without cap) and stored for 4 weeks at 40° C./75% RH and for 1 week at 50° C./92% RH.
The sofosbuvir/velpatasvir SSD/voxilaprevir SSD tablets were packaged in the designated commercial packaging configuration (28-count, 100 mL HPDE bottle, coil, 1 g desiccant), and stored for 6 months at 25° C./60% RH and 40° C./75% RH.

[3] = Tablet dissolution in 50 mM sodium acetate buffer pH 5.0 with 2.0% w/v Polysorbate 80 and 0.001% w/v BHT, 75 rpm, 900 mL, 37° C., USP Type II; format: physicochemical; details: for dissolution at 30 minutes: after 4 weeks open at 40° C./75% RH
[4] = BCS classification; format: physicochemical
[5] = Photostability (light exposure, ICH Q1B); format: physicochemical
Protocol: In some embodiments, and the Examples presented herein, the tablet formulation includes sofosbuvir having Form 6 and, optionally, a trace amount of Form 7.
Tablet cores and film-coated tablets were evaluated per ICH Q1B guidelines with a total of illumination of more than 1.2 million-lux hours and a total irradiance of more than 200 W·hr/m^2.

[6] = Tablet dissolution as a function of medium pH and composition (Apparatus II, 75 rpm, 900 mL, 37° C.); format: physicochemical; details: Formulation G tablets
[7] = Oral bioavailability of crystalline voxilaprevir forms in a dog model; details: in vivo, read-out: oral bioavailability, less than that of crystalline Form VI
Protocol: (§1) As described previously, Form VIII of voxilaprevir is characterized by an X-ray powder diffractogram comprising the following peaks (±0.2°): at 7.8, 8.2, and 20.2°2θ, as determined on a diffractometer using Cu-Kα radiation.

[8] = Solubility (aqueous, spray-drying solvents); format: physicochemical
Description: (§2) In some embodiments, and the Examples presented herein, the tablet formulation includes sofosbuvir having Form 6 and, optionally, a trace amount of Form 7. […] Form 6 of sofosbuvir is the thermodynamically stable form and remains physically stable when suspended in water. Form 7 of Sofosbuvir, while physically stable in water for short periods of time, can be converted to Form 6 with prolonged stirring.
as §1
The selection of a suitable solvent for the spray drying process was based on (1) the solubility of voxilaprevir EAS, Form II and copovidone in the solvent, (2) the chemical stability of voxilaprevir EAS, Form II in the presence of the solvent, and (3) the impact of the solvent on feed solution properties and particle properties of the resulting solid dispersion. Acetone and dichloromethane were evaluated as solvents for the feed solution because of their low boiling points and the high solubility of voxilaprevir EAS, Form II (>300 mg/mL) in these solvents.

[9] = Hygroscopicity; format: physicochemical
Description: as §2
Voxilaprevir SSD is hygroscopic, with a reversible weight gain of 11% when cycled between 0% and 90% RH at 25° C.

## COC[C@H]1C[C@@H](c2ncc(-c3ccc4c(c3)COc3cc5c(ccc6nc([C@@H]7CC[C@H](C)N7C(=O)[C@@H](NC(=O)OC)C(C)C)[nH]c65)cc3-4)[nH]2)N(C(=O)[C@H](NC(=O)OC)c2ccccc2)C1 [Velpatasvir, methyl {(2S)-1-[(2S,5S)-2-(9-{2-[(2S,4S)-1-{(2R)-2-[(methoxycarbonyl)amino]-2-phenylacetyl}-4-(methoxymethyl)pyrrolidin-2-yl]-1H-imidazol-5-yl}-1,11-dihydroisochromeno[4′,3′:6,7]naphtho[1,2-d]imidazol-2-yl)-5-methylpyrrolidin-1-yl]-3-methyl-1-oxobutan-2-yl}carbamate]
[1]; dose range of 5 to 450 mg
  dose linearity of PK: nonlinear PK
[1]; multiple dose 5 mg, read-out: Ctau
  concentration at 24 h: 2.2 ng/mL
[1]; single dose 5 mg, read-out: Clast
  concentration at 24 h: 1.4 ng/mL
[2]; packaged Formulation G tablets (Tables 11A, 11B), 40° C./75% RH and 25° C./60% RH for 6 months
  total impurities/degradation products: 0.0%
[2]; tablet Lots A-D from sub-potent/super-potent VEL SSD and VOX SSD, all conditions
  total impurities/degradation products: 0.0%
[2]; tablets from SSDs made with high-peroxide copovidone (544 ppm VEL SSD, 655 ppm VOX SSD)
  total impurities/degradation products: 0.0%
[2]; tablets from VEL SSD with 6.0% residual ethanol and VOX SSD with 2.1% residual acetone, all conditions
  total impurities/degradation products: 0.0%
[2]; tablets from VEL SSD with 7.0% and VOX SSD with 3.2% water content, all conditions
  total impurities/degradation products: 0.0%
[3]; SSD potency tablets Lot A
  dissolution at 30 minutes: 86%
[3]; SSD potency tablets Lot B
  dissolution at 30 minutes: 91%
[3]; tablets containing neat amorphous velpatasvir free base (physical mixture with copovidone)
  release at 30 minutes: 62%
[3]; tablets containing velpatasvir SSD
  release at 30 minutes: 91%
[4]
  aqueous solubility, pH dependence: pH-dependent solubility
[5]; tablets film-coated to weight gains of 2.1 to 5.4%, ICH Q1B
  level of degradation products: 0.4%
[5]; uncoated tablet cores (Formulation G), ICH Q1B
  loss after exposure to light: up to 0.3%
[6]
  dissolution at 60 minutes in pH 4.0 and 5.0 containing 2.0% w/v polysorbate 80: complete dissolution
  dissolution in pH 2.0, 4.5 and 6.8 buffers, FaSSIF and FeSSIF: Incomplete dissolution

## CC[C@@H]1[C@@H]2CN(C(=O)[C@H](C(C)(C)C)NC(=O)O[C@@H]3C[C@H]3CCCCC(F)(F)c3nc4ccc(OC)cc4nc3O2)[C@@H]1C(=O)N[C@]1(C(=O)NS(=O)(=O)C2(C)CC2)C[C@H]1C(F)F [crystalline Form VIII]
[7]
  bioavailability: ~50%

## CC(C)OC(=O)[C@@H](C)N[P@](=O)(OC[C@H]1O[C@@H](n2ccc(=O)[nH]c2=O)[C@](C)(F)[C@@H]1O)Oc1ccccc1 [sofosbuvir Form 6]
[2]
  physical and chemical stability: physically and chemically stable
[5]
  photosensitivity: not photosensitive
[8]; water, 37° C., read-out: aqueous solubility
  solubility: ≥ 2 mg/mL
[9]
  hygroscopicity: non-hygroscopic

## CC(C)OC(=O)[C@@H](C)N[P@](=O)(OC[C@H]1O[C@@H](n2ccc(=O)[nH]c2=O)[C@](C)(F)[C@@H]1O)Oc1ccccc1 [sofosbuvir Form 7]
[2]
  physical and chemical stability: physically and chemically stable
[5]
  photosensitivity: not photosensitive
[9]
  hygroscopicity: non-hygroscopic

## CC[C@@H]1[C@@H]2CN(C(=O)[C@H](C(C)(C)C)NC(=O)O[C@@H]3C[C@H]3CCCCC(F)(F)c3nc4ccc(OC)cc4nc3O2)[C@@H]1C(=O)N[C@]1(C(=O)NS(=O)(=O)C2(C)CC2)C[C@H]1C(F)F [voxilaprevir EAS, Form II]
[8]; acetone and dichloromethane, organic solvent or mixture, read-out: solubility in acetone and dichloromethane
  solubility: > 300 mg/mL
